The source of these data is publication PMC10477886, “Adamantaniline Derivatives Target ATP5B to Inhibit Translation of Hypoxia Inducible Factor‐1α” (Advanced Science, 2023).

Data set [1] can be described thus: plasma concentration and pharmacokinetics after intraperitoneal administration in ICR mice. The class given is in vivo. As to conditions: intraperitoneal 50 mg kg^−1, two mice per compound, five times. The method, then: First, we roughly screened the concentrations in the plasma of seven selected compounds (1‐3n, 1‐3au, 1‐4a, 1‐4k, 1‐4l, 1‐4m, and 1‐4p) at indicated times after intraperitoneal administration in the Institute of Cancer Research (ICR) mice at a dose of 50 mg kg^−1 with two mice per compound, the blood at five different times was collected and the plasma concentration was analyzed finally. […] Besides, we examined the toxicity of HI‐104 in ICR mice by administering for 1 week at a dose of 100 mg kg^−1 by intraperitoneal injection.

Data set [2] relates to HIF‐1α transcriptional activity. Kind of data set: dual‐luciferase assay (HRE‐Firefly Luciferase / renilla) of HIF‐1α transcriptional activity in HEK293T cells. To be noted: Homo sapiens, HEK-293T, mean ± s.d. (n = 3); for inhibition at 10 µM: incubation 24 h, HEK293T, read-out: Inhibition rate [%] @ 10 µM; for IC50: HEK293T dual‐luciferase. The class given is cell-based, human. The source says:
To screen HIF‐1α inhibitors in a robust cell‐based assay, we optimized the dual‐luciferase assay with pLenti‐HIF‐1αP2A (P402A and P564A) instead of pLenti‐HIF‐1α in order to ensure the expression of HIF‐1α under normoxia condition. In the cell‐based assay, HEK293T cells were co‐transfected with pLenti‐HIF‐1αP2A, renilla, and hypoxia‐responsive element (HRE)‐Firefly Luciferase (Figure S1, Supporting Information). […] Three compounds were selected as the positive controls including two inhibitors (PX‐478 2HCl and BAY 87‐2243) and an activator (BAY 85‐3934) in the screening assay.
HEK293T cells were stably transfected with reporter plasmids pGMLV‐HRE‐LUC‐puromycin, pMSCV‐renilla‐hygromycin, and pLenti‐HIF‐1αP2A‐neomycin. Stable cell line constructed above, 293‐HIF‐1αP2A‐HRE‐Fluc‐Rluc, were seeded in 384‐well plates and cultured in DMEM with 10% FBS. The following day, the cells were pretreated with indicated chemical compounds from the National Compound Library of the Shanghai Institute of Materia Medica, Chinese Academy of Sciences by Mosquito HTS. The plate was then placed in an incubator chamber and incubated at 37 °C for 24 h. The ratio of firefly/renilla luciferase activity was determined by using the Envision (PerkinElmer).
Stable cell line 293‐HRE‐Fluc‐Rluc expressed luciferase and renilla or HEK293T cells transfected with indicated plasmids (pGL3‐HRE‐luciferase and pSV40‐renilla) were seeded in a 96‐well plate. The cells were co‐incubated with indicated compounds for 24 h and luciferase activities were detected in Microplate Reader (BioTek SYNEGRY H1) using the Dual Luciferase Reporter Assay System Kit (Promega, USA E1910) according to the manufacturer's instruction. The relative Luc activity was normalized by renilla activity. Three independent experiments were performed, and the calculated means and SDs are presented.

As for `Nc1ccnc(C(=O)Nc2ccc(C34CC5CC(CC(C5)C3)C4)cc2)c1` [1‐4p, N‐(4‐((3r,5r,7r)‐Adamantan‐1‐yl)Phenyl)−4‐Aminopicolinamide], the “concentration in the plasma (rough screen)” value in data set [1] is reported as “barely detectable in the plasma”. Besides, in data set [2], the inhibition at 10 µM is 99.2 ± 0.1% and the IC50 turned out to be 73 ± 2 nM.
`O=C(Nc1ccc(C23CC4CC(CC(C4)C2)C3)cc1)c1ccc(Cl)cc1` [1‐3c, N‐(4‐((3r,5r,7r)‐Adamantan‐1‐yl)Phenyl)−4‐Chlorobenzamide]: the inhibition at 10 µM in data set [2] was found to be 63.4 ± 5.4%.
As to `O=C(Nc1ccc(C23CC4CC(CC(C4)C2)C3)cc1)c1ccncc1` [1‐4c, N‐(4‐((3r,5r,7r)‐Adamantan‐1‐yl)Phenyl)Isonicotinamide], the inhibition at 10 µM in data set [2] was 41.6 ± 2%.
On to `CCCCCCCCc1ccc(C(=O)Nc2ccc(C34CC5CC(CC(C5)C3)C4)cc2)cc1` [1‐3ak, N‐(4‐((1s,3s)‐Adamantan‐1‐yl)Phenyl)−4‐Octylbenzamide], for which the inhibition at 10 µM in data set [2] was 32.5 ± 7.2%.
Regarding `CN1CCN(CCCCC(=O)Nc2cccc(C(=O)Nc3ccc(C45CC6CC(CC(C6)C4)C5)cc3)c2)CC1` [1‐3am, N‐(4‐((1s,3s)‐Adamantan‐1‐yl)Phenyl)−3‐(5‐(4‐Methylpiperazin‐1‐yl)Pentanamido)Benzamide], in data set [2], the inhibition at 10 µM was 86.4 ± 0.9% and half-maximal inhibition (IC50) required 1300 ± 200 nM.
Regarding `O=C(CC12CC3CC(CC(C3)C1)C2)Nc1ccc(NC(=O)c2ccccn2)cc1` [2‐3b, N‐(4‐(2‐((3r,5r,7r)‐Adamantan‐1‐yl)Acetamido)Phenyl)Picolinamide], in data set [2], the inhibition at 10 µM is 68 ± 4.7% and the IC50 worked out at 3500 ± 1000 nM.
The like results for `Nc1ccccc1C(=O)Nc1ccc(C23CC4CC(CC(C4)C2)C3)cc1` [1‐3s, N‐(4‐((3r,5r,7r)‐Adamantan‐1‐yl)Phenyl)−2‐Aminobenzamide] were, in that order, 90.4 ± 1.7% and 540 ± 20 nM.
On to `CCCCCCOc1cccc(C(=O)Nc2ccc(C34CC5CC(CC(C5)C3)C4)cc2)c1` [1‐3aj, N‐(4‐((3r,5r,7r)‐Adamantan‐1‐yl)Phenyl)−3‐(Hexyloxy)Benzamide], for which, in data set [2], the inhibition at 10 µM came to 28.4 ± 6.9%.
The same measure, in the same setting: in the case of `N#Cc1cccc(C(=O)Nc2ccc(C34CC5CC(CC(C5)C3)C4)cc2)c1` [1‐3k, N‐(4‐((3r,5r,7r)‐Adamantan‐1‐yl)Phenyl)−3‐Cyanobenzamide] it was 67.4 ± 3.8%.
On the same count and under the same terms, the value for `Cc1cc(C23CC4CC(C)(CC(C)(C4)C2)C3)cc(C)c1NC(=O)c1cccc(Cl)c1` [3‐2f, 3‐Chloro‐N‐(4‐((1r,3R,5S,7r)−3,5‐Dimethyladamantan‐1‐yl)−2,6‐Dimethylphenyl)Benzamide] was 65.7 ± 6.7%; that for `O=C(Nc1ccc(C23CC4CC(CC(C4)C2)C3)cc1)c1ccc(N2CCCC2)cc1` [1‐3ah, N‐(4‐((3r,5r,7r)‐Adamantan‐1‐yl)Phenyl)−4‐(Pyrrolidin‐1‐yl)Benzamide] was 66.5 ± 0.9%; that for `O=C(Nc1ccc(C23CC4CC(CC(C4)C2)C3)cc1)c1cccnc1` [1‐4b, N‐(4‐((3r,5r,7r)‐Adamantan‐1‐yl)Phenyl)Nicotinamide] was 75.2 ± 1.9%.
Turning to `CC(=O)Nc1cccc(C(=O)Nc2ccc(C34CC5CC(CC(C5)C3)C4)cc2)c1` [1‐3w, 3‐Acetamido‐N‐(4‐((3r,5r,7r)‐Adamantan‐1‐yl)Phenyl)Benzamide], in data set [2], the inhibition at 10 µM was determined as 77.4 ± 2.3% and the midpoint of inhibition, the IC50, lay at 1900 ± 200 nM.
On to `CC(=O)Nc1ccccc1C(=O)Nc1ccc(C23CC4CC(CC(C4)C2)C3)cc1` [1‐3v, 2‐Acetamido‐N‐(4‐((3r,5r,7r)‐Adamantan‐1‐yl)Phenyl)Benzamide], for which, in data set [2], the inhibition at 10 µM turned out to be 18.4 ± 2.2%.
As for `N#Cc1ccc(C(=O)Nc2ccc(C34CC5CC(CC(C5)C3)C4)cc2)cc1` [1‐3l, N‐(4‐((3r,5r,7r)‐Adamantan‐1‐yl)Phenyl)−4‐Cyanobenzamide], the inhibition at 10 µM in data set [2] came out at 61.2 ± 5.5%.
As for `CC12CC3CC(C)(C1)CC(c1ccc(NC(=O)c4cccc(Cl)c4)cc1)(C3)C2` [3‐2e, 3‐Chloro‐N‐(4‐((1r,3R,5S,7r)−3,5‐Dimethyladamantan‐1‐yl)Phenyl)Benzamide], the inhibition at 10 µM in data set [2] was found to be 27.1 ± 1%.
With `O=C(Nc1ccc(C23CC4CC(CC(C4)C2)C3)cc1)c1ccncn1` [1‐4d, N‐(4‐((3r,5r,7r)‐Adamantan‐1‐yl)Phenyl)Pyrimidine‐4‐Carboxamide], in data set [2], the inhibition at 10 µM was determined as 97.1 ± 0.4% and the IC50 was 280 ± 60 nM.
Take `CCc1cc(C23CC4CC(CC(C4)C2)C3)cc(CC)c1NC(=O)c1cccc(Cl)c1` [3‐2i, N‐(4‐((3r,5r,7r)‐Adamantan‐1‐yl)−2,6‐Diethylphenyl)−3‐Chlorobenzamide]: the inhibition at 10 µM in data set [2] came to 35.1 ± 5.7%.
`C[N+](C)(C)CCCC(=O)Nc1cccc(C(=O)Nc2ccc(C34CC5CC(CC(C5)C3)C4)cc2)c1` [1‐3as, 4‐((3‐((4‐((3r,5r,7r)‐Adamantan‐1‐yl)Phenyl)Carbamoyl)Phenyl)Amino)‐N,N,N‐Trimethyl‐4‐Oxobutan‐1‐Aminium]: in data set [2], the inhibition at 10 µM came to 76.4 ± 1.3% and half-maximal inhibition (IC50) required 2500 ± 700 nM.
On to `O=C(Nc1ccc(C23CC4CC(CC(C4)C2)C3)cc1)c1ccc(C(F)(F)F)cc1` [1‐3af, N‐(4‐((3r,5r,7r)‐Adamantan‐1‐yl)Phenyl)−4‐(Trifluoromethyl)Benzamide], for which the inhibition at 10 µM in data set [2] was 37.9 ± 0.7%.
As to `O=C(Nc1ccc(C23CC4CC(CC(C4)C2)C3)cc1)c1cccc(C(F)(F)F)c1` [1‐3ae, N‐(4‐((3r,5r,7r)‐Adamantan‐1‐yl)Phenyl)−3‐(Trifluoromethyl)Nenzamide], in data set [2], the inhibition at 10 µM came out at 20.2 ± 1.5%.
Take `CC(C)(C)OC(=O)Nc1ccc(C(=O)Nc2ccc(C34CC5CC(CC(C5)C3)C4)cc2)cc1` [1‐3r, Tert‐Butyl (4‐((4‐((3r,5r,7r)‐Adamantan‐1‐yl)Phenyl)Carbamoyl)Phenyl)Carbamate]: the inhibition at 10 µM in data set [2] turned out to be 54.6 ± 1.6%.
On to `CCCCCCOc1ccccc1C(=O)Nc1ccc(C23CC4CC(CC(C4)C2)C3)cc1` [1‐3ai, N‐(4‐((3r,5r,7r)‐Adamantan‐1‐yl)Phenyl)−2‐(Hexyloxy)Benzamide], for which, in data set [2], the inhibition at 10 µM was 28.2 ± 5.5%.
Turning to `Nc1ccc(C(=O)Nc2ccc(C34CC5CC(CC(C5)C3)C4)cc2)cc1` [1‐3u, N‐(4‐((3r,5r,7r)‐Adamantan‐1‐yl)Phenyl)−4‐Aminobenzamide], in data set [2], the inhibition at 10 µM is 98.4 ± 0.1% and half-maximal inhibition (IC50) was put at 110 ± 10 nM.
Regarding `CC(C)(C)OC(=O)Nc1cccc(C(=O)Nc2ccc(C34CC5CC(CC(C5)C3)C4)cc2)c1` [1‐3q, Tert‐Butyl (3‐((4‐((3r,5r,7r)‐Adamantan‐1‐yl)Phenyl)Carbamoyl)Phenyl)Carbamate], in data set [2], the inhibition at 10 µM was found to be 75.5 ± 0.3% and the IC50 was 3500 ± 200 nM.
For `O=C(CCCCBr)Nc1ccc(C(=O)Nc2ccc(C34CC5CC(CC(C5)C3)C4)cc2)cc1` [1‐3ao, N‐(4‐((3r,5r,7r)‐Adamantan‐1‐yl)Phenyl)−4‐(5‐Bromopentanamido)Benzamide], in that order: 82.9 ± 2.4% and 2300 ± 500 nM.
Turning to `Cc1cnc(C(=O)Nc2ccc(C34CC5CC(CC(C5)C3)C4)cc2)cn1` [1‐4e], the inhibition at 10 µM in data set [2] is 36.3 ± 4.2%.
For the compound `Nc1cccnc1C(=O)Nc1ccc(C23CC4CC(CC(C4)C2)C3)cc1` [1‐4r, N‐(4‐((3r,5r,7r)‐Adamantan‐1‐yl)Phenyl)−3‐Aminopicolinamide], in data set [2], the inhibition at 10 µM was 97.5 ± 1% and the IC50 amounted to 170 ± 20 nM.
On to `CC12CC3CC(C)(C1)CC(c1cnc(NC(=O)c4cccc(Cl)c4)nc1)(C3)C2` [3‐2g, 3‐Chloro‐N‐(5‐((1r,3R,5S,7r)−3,5‐Dimethyladamantan‐1‐yl)Pyrimidin‐2‐yl)Benzamide], for which, in data set [2], the inhibition at 10 µM was found to be 27.8 ± 8.8%.
As for `O=C(Nc1ccc(C23CC4CC(CC(C4)C2)C3)cc1)c1ccccc1C(F)(F)F` [1‐3ad, N‐(4‐((3r,5r,7r)‐Adamantan‐1‐yl)Phenyl)−2‐(Trifluoromethyl)Benzamide], the inhibition at 10 µM in data set [2] was determined as 31.3 ± 3.3%.
As for `Cc1cc(C23CC4CC(CC(C4)C2)C3)cc(C)c1NC(=O)c1cccc(Cl)c1` [3‐2a, N‐(4‐((3r,5r,7r)‐Adamantan‐1‐yl)−2,6‐Dimethylphenyl)−3‐Chlorobenzamide], the inhibition at 10 µM in data set [2] was found to be 34.8 ± 3.8%.
Consider `COc1ccc(C(=O)Nc2ccc(C34CC5CC(CC(C5)C3)C4)cc2)nc1` [1‐4f], for which the inhibition at 10 µM in data set [2] was 36.1 ± 5.6%.
On to `O=C(Nc1ccc(C23CC4CC(CC(C4)C2)C3)cc1)c1ccc(O)cc1` [1‐3o, N‐(4‐((3r,5r,7r)‐Adamantan‐1‐yl)Phenyl)−4‐Hydroxybenzamide], for which, in data set [2], the inhibition at 10 µM worked out at 96.4 ± 0.2% and the half-inhibitory concentration (IC50) worked out at 53 ± 8 nM.
